Data reported in patent publication US8178535B2, “Substituted sulfonamide compounds having bradykinin 1 receptor activity and use thereof as medicaments” (Gruenenthal GmbH, priority 2008, dated 2012).

Experiments:
[1] = biological target: T1, human B1R receptor (hB1R) (Homo sapiens, UniProt P46663); test: FLIPR Ca2+ assay (Fluo-4) on CHO K1 cells stably transfected with the human B1R gene; format: cell-based; conditions: test substance 10 μM, agonist Lys-Des-Arg9-bradykinin 0.5 nM, % inhibition compared to the maximum achievable inhibition; for inhibition at 10 µM: CHO-K1
T1 construct: host or cells: CHO K1 cells
T1 sequence (P46663 1-353): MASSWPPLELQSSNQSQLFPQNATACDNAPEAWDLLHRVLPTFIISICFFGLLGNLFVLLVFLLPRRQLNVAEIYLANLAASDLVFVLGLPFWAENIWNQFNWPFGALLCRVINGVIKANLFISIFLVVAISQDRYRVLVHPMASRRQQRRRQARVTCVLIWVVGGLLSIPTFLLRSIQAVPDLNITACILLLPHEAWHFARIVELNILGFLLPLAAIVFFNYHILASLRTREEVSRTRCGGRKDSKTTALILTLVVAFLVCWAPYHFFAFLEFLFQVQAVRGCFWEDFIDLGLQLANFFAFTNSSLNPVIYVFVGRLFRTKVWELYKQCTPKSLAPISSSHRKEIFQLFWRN
Method in brief: (§1)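 CHO K1 cells stably expressing human or rat B1R, Fluo-4 loaded, read by FLIPR (Ex 488/Em 540, peak fluorescence). Compound at 10 μM gives % activation vs agonist. After 10 min, agonist added (human: Lys-Des-Arg9-bradykinin 0.5 nM; rat: Des-Arg9-bradykinin 100 nM); % inhibition relative to maximal achievable inhibition.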

[2] = biological target: T2, B1R receptor of rats (rB1R) (Rattus norvegicus, UniProt P97583); test: FLIPR Ca2+ assay (Fluo-4) on CHO K1 cells stably transfected with the B1R gene of rats; format: cell-based; conditions: test substance 10 μM, agonist Des-Arg9-bradykinin 100 nM, % inhibition compared to the maximum achievable inhibition; for inhibition at 10 µM: CHO-K1
T2 construct: host or cells: CHO K1 cells
T2 sequence (P97583 1-337): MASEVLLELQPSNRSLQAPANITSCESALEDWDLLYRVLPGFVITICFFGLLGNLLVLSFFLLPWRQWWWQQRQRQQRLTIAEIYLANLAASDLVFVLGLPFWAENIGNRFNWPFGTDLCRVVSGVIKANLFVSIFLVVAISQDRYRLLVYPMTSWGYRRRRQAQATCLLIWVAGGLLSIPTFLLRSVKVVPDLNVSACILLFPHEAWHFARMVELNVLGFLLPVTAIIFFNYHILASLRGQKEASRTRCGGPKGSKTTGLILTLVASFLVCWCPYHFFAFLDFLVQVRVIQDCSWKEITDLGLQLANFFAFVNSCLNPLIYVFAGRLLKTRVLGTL
Method in brief: as §1

Row | Structure (SMILES) | inhibition at 10 µM [1] | inhibition at 10 µM [2] | hB1R [10 μM] % Inhibition [1] | rB1R [10 μM] % Inhibition [2]
1 | Cc1cc(C)c(S(=O)(=O)N2CCCCC2COCC(=O)N2CCn3c(CN4CCCC4)ccc3C2c2ccccc2)c(C)c1 (centres unmarked) [(47), 2-((1-(mesitylsulfonyl)piperidin-2-yl)methoxy)-1-(1-phenyl-6-(pyrrolidin-1-yl-methyl)-3,4-dihydropyrrolo[1,2-a]pyrazin-2(1H)-yl)ethanone] | 101% | 103% |  | 
2 | COc1cc(C)c(S(=O)(=O)N2CCCCC2COCC(=O)N2CCn3cccc3C2c2ccc(F)c(F)c2)c(C)c1 (centres unmarked) [(26), 1-(1-(3,4-difluorophenyl)-3,4-dihydropyrrolo[1,2-a]pyrazin-2(1H)-yl)-2-((1-(4-methoxy-2,6-dimethylphenylsulfonyl)piperidin-2-yl)methoxy)ethanone] | 86% | 98% |  | 
3 | COc1cc(C)c(S(=O)(=O)N2CCCCC2CCC(=O)N2CCn3c(ccc3-c3ccncc3)C2)c(C)c1 (centres unmarked) [(96), 3-(1-(4-Methoxy-2,6-dimethylphenylsulfonyl)piperidin-2-yl)-1-(6-(pyridin-4-yl)-3,4-dihydropyrrolo[1,2-a]pyrazin-2(1H)-yl)propan-1-one] | 61% | 96% |  | 
4 | COc1cc(C)c(S(=O)(=O)N2CCCCC2COCC(=O)N2CCn3c(CN4CCCCC4)ccc3C2c2ccccc2)c(C)c1 (centres unmarked) [(63), 2-((1-(4-methoxy-2,6-dimethylphenylsulfonyl)piperidin-2-yl)methoxy)-1-(1-phenyl-6-(piperidin-1-ylmethyl)-3,4-dihydropyrrolo[1,2-a]pyrazin-2(1H)-yl)ethanone] | 104% | 103% |  | 
5 | COc1cc(C)c(S(=O)(=O)N2CCCCC2COCC(=O)N2CCn3cccc3C2c2ccc(Cl)nc2)c(C)c1 (centres unmarked) [(22), 1-(1-(6-chloropyridin-3-yl)-3,4-dihydropyrrolo[1,2-a]pyrazin-2(1H)-yl)-2-((1-(4-methoxy-2,6-dimethylphenylsulfonyl)piperidin-2-yl)methoxy)ethanone] | 102% | 99% |  | 
6 | COc1cc(C)c(S(=O)(=O)N2CCCCC2COCC(=O)N2CCn3c(CCc4ccncc4)ccc3C2)c(C)c1 (centres unmarked) [(106), 2-((1-(4-Methoxy-2,6-dimethylphenylsulfonyl)piperidin-2-yl)methoxy)-1-(6-(2-(pyridin-4-yl)ethyl)-3,4-dihydropyrrolo[1,2-a]pyrazin-2(1H)-yl)ethanone] | 99% | 99% |  | 
7 | COc1cc(C)c(S(=O)(=O)N2CCCCC2COCC(=O)N2CCn3cccc3C2c2cccc(C(F)(F)F)c2)c(C)c1 (centres unmarked) [(30), 2-((1-(4-methoxy-2,6-dimethylphenylsulfonyl)piperidin-2-yl)methoxy)-1-(1-(3-(trifluoromethyl)phenyl)-3,4-dihydropyrrolo[1,2-a]pyrazin-2(1H)-yl)ethanone] | 58% | 98% |  | 
8 | COc1cc(C)c(S(=O)(=O)N2CCCCC2COCC(=O)N2CCn3ccnc3C2)c(C)c1 (centres unmarked) [(23), 1-(5,6-dihydroimidazo[1,2-a]pyrazin-7(8H)-yl)-2-((1-(4-methoxy-2,6-dimethyl-phenylsulfonyl)piperidin-2-yl)methoxy)ethanone] | 70% | 99% |  | 
9 | O=C(COCC1CCc2ccccc2N1S(=O)(=O)c1ccc(Cl)c(Cl)c1)N1CCn2c(CN3CCCC3)ccc2C1 (centres unmarked) [(10), 2-((1-(3,4-dichlorophenylsulfonyl)-1,2,3,4-tetrahydroquinolin-2-yl)methoxy)-1-(6-(pyrrolidin-1-ylmethyl)-3,4-dihydropyrrolo[1,2-a]pyrazin-2(1H)-yl)ethanone] | 101% | 91% |  | 
10 | Cc1cc(C)c(S(=O)(=O)N2CCCCC2COCC(=O)N2CCn3cccc3C2C)c(C)c1 (centres unmarked) [(34), 2-((1-(mesitylsulfonyl)piperidin-2-yl)methoxy)-1-(1-methyl-3,4-dehydro-pyrrolo[1,2-a]pyrazin-2(1H)-yl)ethanone] |  |  | 76% | 99%
11 | O=C(CC1CCCCN1S(=O)(=O)c1cccc(C(F)(F)F)c1)N1CCn2c(CN3CCCC3)ccc2C1 (centres unmarked) [(8), 1-(6-(pyrrolidin-1-ylmethyl)-3,4-dihydropyrrolo[1,2-a]pyrazin-2(1H)-yl)-2-(1-(3-(trifluoromethyl)phenylsulfonyl)piperidin-2-yl)ethanone] | 99% | 96% |  | 
12 | COc1cc(C)c(S(=O)(=O)N2CCCCC2COCC(=O)N2CCn3ncnc3C2)c(C)c1 (centres unmarked) [(73), 1-(5,6-dihydro-[1,2,4]triazolo[1,5-a]pyrazin-7(8H)-yl)-2-((1-(4-methoxy-2,6-dimethylphenylsulfonyl)piperidin-2-yl)methoxy)ethanone] | 36% | 102% |  | 
13 | CCC1c2ccc(C)n2CCN1C(=O)COCC1CCCCN1S(=O)(=O)c1c(C)cc(C)cc1C (centres unmarked) [(58), 1-(1-ethyl-6-methyl-3,4-dihydropyrrolo[1,2-a]pyrazin-2(1H)-yl)-2-((1-(mesitylsulfonyl)piperidin-2-yl)methoxy)ethanone] | 97% | 103% |  | 
14 | O=C(CC1CCCCN1S(=O)(=O)c1cccc(C(F)(F)F)c1)N1CCn2cc(CCc3ccncc3)nc2C1 (centres unmarked) [(116), 1-(2-(2-(pyridin-4-yl)ethyl)-5,6-dihydroimidazo[1,2-a]pyrazin-7(8H)-yl)-2-(1-(3-(trifluoromethyl)phenylsulfonyl)piperidin-2-yl)ethanone] | 78% | 102% |  | 
15 | COc1cc(C)c(S(=O)(=O)N2CCCCC2COCC(=O)N2CCn3cccc3C2c2cccc(F)c2)c(C)c1 (centres unmarked) [(28), 1-(1-(3-fluorophenyl)-3,4-dihydropyrrolo[1,2-a]pyrazin-2(1H)-yl)-2-((1-(4-methoxy-2,6-dimethylphenylsulfonyl)piperidin-2-yl)methoxy)ethanone] | 98% | 98% |  | 
16 | COc1cc(C)c(S(=O)(=O)N2CCCCC2COCC(=O)N2CCn3c(CN4CCOCC4)ccc3C2)c(C)c1 (centres unmarked) [(6), 2-((1-(4-methoxy-2,6-dimethylphenylsulfonyl)piperidin-2-yl)methoxy)-1-(6-(morpholinomethyl)-3,4-dihydropyrrolo[1,2-a]pyrazin-2(1H)-yl)ethanone] | 100% | 101% |  | 
17 | Cc1cc(C)c(S(=O)(=O)N2CCCCC2COCC(=O)N2CCn3cccc3C2c2ccc(Cl)nc2)c(C)c1 (centres unmarked) [(36), 1-(1-(6-chloropyridin-3-yl)-3,4-dihydropyrrolo[1,2-a]pyrazin-2(1H)-yl)-2-((1-(mesitylsulfonyl)piperidin-2-yl)methoxy)ethanone] | 99% | 99% |  | 
18 | COc1cc(C)c(S(=O)(=O)N2CCCCC2CCC(=O)N2CCn3c(Cc4cccnc4)ccc3C2)c(C)c1 (centres unmarked) [(113), 3-(1-(4-Methoxy-2,6-dimethylphenylsulfonyl)piperidin-2-yl)-1-(6-(pyridin-3-ylmethyl)-3,4-dihydropyrrolo[1,2-a]pyrazin-2(1H)-yl)propan-1-one] | 97% | 100% |  | 
19 | COc1cc(C)c(S(=O)(=O)N2CCCCC2COCC(=O)N2CCn3cc(CCc4ccncc4)nc3C2)c(C)c1 (centres unmarked) [(115), 2-((1-(4-Methoxy-2,6-dimethylphenylsulfonyl)piperidin-2-yl)methoxy)-1-(2-(2-(pyridin-4-yl)ethyl)-5,6-dihydroimidazo[1,2-a]pyrazin-7(8H)-yl)ethanone] | 100% | 98% |  | 
20 | COc1cc(C)c(S(=O)(=O)N2CCCCC2CCC(=O)N2CCn3c(CCc4ccncc4)ccc3C2)c(C)c1 (centres unmarked) [(108), 3-(1-(4-Methoxy-2,6-dimethylphenylsulfonyl)piperidin-2-yl)-1-(6-(2-(pyridin-4-yl)ethyl)-3,4-dihydropyrrolo[1,2-a]pyrazin-2(1H)-yl)propan-1-one] | 92% | 99% |  | 
21 | Cc1cc(C)c(S(=O)(=O)N2CCCCC2COCC(=O)N2CCn3c(CN(C)C)ccc3C2Cc2ccccc2)c(C)c1 (centres unmarked) [(50), 1-(1-benzyl-6-((dimethylamino)methyl)-3,4-dihydropyrrolo[1,2-a]pyrazin-2(1H)-yl)-2-((1-(mesitylsulfonyl)piperidin-2-yl)methoxy)ethanone] | 100% | 102% |  | 
22 | CN1CCN(Cc2ccc3n2CCN(C(=O)CC2CCCCN2S(=O)(=O)c2cccc(C(F)(F)F)c2)C3)CC1 (centres unmarked) [(7), 1-(6-((4-methylpiperazin-1-yl)methyl)-3,4-dihydropyrrolo[1,2-a]pyrazin-2(1H)-yl)-2-(1-(3-(trifluoromethyl)phenylsulfonyl)piperidin-2-yl)ethanone] | 87% | 52% |  | 
